Positions count from the first letter of the chain named.
Experiments:
[1] = target: T1, NUAK2(h) enzyme (Homo sapiens, UniProt Q9H093); test: In vitro NUAK2 enzymatic assay (Eurofins Discovery, [γ-33P]-ATP filter assay); format: biochemical; details: 45 μM ATP, 40 min, room temperature; read-out: IC50, inhibitory effect on NUAK2 enzyme activity
T1 construct: purchased Eurofins Discovery
T1 sequence (Q9H093 1-628): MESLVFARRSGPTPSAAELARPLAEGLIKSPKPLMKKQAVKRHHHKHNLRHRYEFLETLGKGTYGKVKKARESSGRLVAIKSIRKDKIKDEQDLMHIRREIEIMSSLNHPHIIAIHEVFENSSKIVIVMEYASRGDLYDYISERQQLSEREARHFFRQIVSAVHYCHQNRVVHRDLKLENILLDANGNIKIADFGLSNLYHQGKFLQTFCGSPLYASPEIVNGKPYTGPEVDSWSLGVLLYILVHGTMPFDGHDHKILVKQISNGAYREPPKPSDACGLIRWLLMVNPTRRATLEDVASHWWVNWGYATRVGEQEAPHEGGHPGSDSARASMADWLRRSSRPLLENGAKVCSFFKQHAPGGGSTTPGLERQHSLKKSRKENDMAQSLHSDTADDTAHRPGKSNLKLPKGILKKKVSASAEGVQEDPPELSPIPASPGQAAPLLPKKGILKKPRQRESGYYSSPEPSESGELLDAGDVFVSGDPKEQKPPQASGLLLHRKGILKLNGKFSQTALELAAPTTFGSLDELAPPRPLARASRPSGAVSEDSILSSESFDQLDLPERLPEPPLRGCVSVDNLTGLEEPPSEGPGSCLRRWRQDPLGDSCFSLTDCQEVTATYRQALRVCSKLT
Method: In Vitro Assay to Determine the Inhibitory Effect of Compounds in the Patent on NUAK2 Enzymatic Activity
The in vitro NUAK2 enzymatic assay was carried out at Eurofins Discovery to evaluate the inhibitory effect of the compounds presented in the invention. The assay protocol is as follow: the compound to be tested was mixed with NUAK2(h) enzyme and 300 […] substrate in 8 mM MOPS (pH 7.0) buffer containing 0.2 mM EDTA. A Mg/ATP mixture containing 10 mM magnesium acetate and 45 μM [γ-33P]-ATP was added to start the reaction. After incubation for 40 min at room temperature, the reaction was terminated by adding 0.5% phosphoric acid. Then 10 μL of the reaction mix was spotted onto a P30 filter paper. The filter paper was washed four times with 0.425% phosphoric acid with 4 min for each wash, and one time with methanol. The filter paper was air-dried and counted in a liquid scintillation counter. The values obtained were plotted against the drug concentration and the IC50 was calculated.
Table 1 summarizes the inhibitory effect (IC50) of compounds on the NUAK2 enzyme activity in the present invention. ++++ indicates IC50≤10 nM; +++ indicates 10 nM<IC50≤100 nM; ++ indicates 100 nM<IC50≤1 μM; + indicates IC50>1 μM.

[2] = target: T2, NUAK1(h) enzyme (Homo sapiens, UniProt O60285); test: In vitro NUAK1 enzymatic assay (Eurofins Discovery, [γ-33P]-ATP filter assay); format: biochemical; details: 45 μM ATP, 40 min, room temperature; read-out: IC50, inhibitory effect on NUAK1 enzyme activity
T2 construct: purchased Eurofins Discovery
T2 sequence (O60285 1-661): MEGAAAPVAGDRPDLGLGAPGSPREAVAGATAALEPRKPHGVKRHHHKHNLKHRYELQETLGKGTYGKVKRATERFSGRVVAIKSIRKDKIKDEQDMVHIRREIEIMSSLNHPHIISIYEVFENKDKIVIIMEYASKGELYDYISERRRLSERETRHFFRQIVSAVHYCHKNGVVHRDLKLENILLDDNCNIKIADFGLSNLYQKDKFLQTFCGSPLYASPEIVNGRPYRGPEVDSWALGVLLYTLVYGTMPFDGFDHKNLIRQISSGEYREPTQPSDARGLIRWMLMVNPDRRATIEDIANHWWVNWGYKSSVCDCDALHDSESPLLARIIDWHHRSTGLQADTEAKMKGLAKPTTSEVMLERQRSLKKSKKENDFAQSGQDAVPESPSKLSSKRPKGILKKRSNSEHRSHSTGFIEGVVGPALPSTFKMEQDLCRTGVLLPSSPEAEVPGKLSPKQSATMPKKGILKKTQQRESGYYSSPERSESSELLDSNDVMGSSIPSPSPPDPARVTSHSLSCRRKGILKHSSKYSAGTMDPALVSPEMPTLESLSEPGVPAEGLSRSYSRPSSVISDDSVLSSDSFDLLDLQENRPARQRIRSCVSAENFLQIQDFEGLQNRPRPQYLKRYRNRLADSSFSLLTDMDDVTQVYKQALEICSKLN
Method: In Vitro Assay to Determine the Inhibitory Effect of Compounds in the Patent on NUAK1 Enzymatic Activity
The in vitro NUAK1 enzymatic assay was carried out at Eurofins Discovery to evaluate the inhibitory effect of the compounds presented in the invention. The assay protocol is as follow: the compound to be tested was mixed with NUAK1(h) enzyme and 300 μM […] substrate in 8 mM MOPS (pH 7.0) buffer containing 0.2 mM EDTA and incubated at room temperature. A Mg/ATP mixture containing 10 mM magnesium acetate and 45 μM [y-33P]-ATP was added to start the reaction. After incubation for 40 min at room temperature, the reaction was terminated by adding 0.5% phosphoric acid. Then, 10 μL of the reaction mix was spotted onto a P30 filter paper followed with four times of wash with 0.425% phosphoric acid solution (4 min each time), and one time wash with methanol. The filter paper was air-dried and counted in a liquid scintillation counter. The values obtained were plotted against the drug concentration and the IC50 was calculated.
Table 1 summarizes the inhibitory effect (IC50) of compounds tested on the NUAK1 enzyme activity in the present invention. ++++ indicates IC50≤10 nM; […]; ++ indicates 100 nM<IC50≤1 μM; + indicates IC50>1 μM.

[3] = tested on: HEC-1-B human endometrial cancer cells; test: CTG (CellTiter-Glo) proliferation assay on HEC-1-B cells, 7 days; format: cell-based; details: 168 h, 7 days incubation, read-out: IC50, inhibitory effect on proliferation of Hec-1B cells
Method: CTG Assay to Evaluate the Inhibitory Effect of Compounds on HEC-1-B Human Endometrial Cancer Cells
Human endometrial cancer HEC-1-B cells were resuscitated and cultured in complete medium (MEM medium+10% FBS). When reaching about 80% confluence, the cells were gently blown away from the bottom of the culture dish with a 1 mL pipette. The cells were collected and centrifuged at 500 rpm for 3 min. The supernatant was discarded and the cell pellet was resuspend in fresh medium. Cells were counted to determine cell density and seeded into 96-well plates at a density of 1000 cells per well and incubated overnight at 37° C. in a 5% CO2 incubator. In the next day, the compounds in storage solution was serially diluted with DMSO at a ratio of 1:3 for a total of 9 concentrations. Two μL of each serially diluted solution was added to 98 μL of cell culture medium ([…]), while DMSO was mixed with culture medium similarly to be served as control. The compound dilutions were shaken and mixed. The cell culture plate with cells was removed from CO2 incubator, the culture medium was aspirated from each well, 135 μL of fresh medium was added to each well followed with 15 μL of the compound dilutions. The plates were incubated at 37° C. for 7 days in a 5% CO2 incubator. One hundred μL CellTiter-Glo reagent was added to each well and the plate was vortexed for 2 min and incubated for 10 min to fully lyse the cells. The chemiluminescence values were read using a plate reader.
The chemiluminescence values were plotted against compound concentrations to calculate the inhibitory activity of each compound on cell proliferation Cell inhibition rate (%)=(chemiluminescence value tested compound−chemiluminescence value DMSO control)/(chemiluminescence value medium control−chemiluminescence valueDMSO control)×100%.
A nonlinear S-curve regression was fitted using XLFit software to fit the data to derive a dose-effect curve, from which the IC50 values were calculated. The curve equation was Y=Bottom+(Top-Bottom)/(1+10{acute over ( )}((LogIC50-X)×slope)), where Y is the cellular inhibition rate, X is the compound concentration, Bottom refers to the lowest inhibition rate, and Top refers to the highest inhibition rate.
Table 3 summarizes the inhibitory effects (IC50) of the compounds on the proliferation of Hec-1B cells, Where ++++ indicates 100 nM<IC50≤500 nM; +++ indicates 500 nM<IC50≤1 μM; ++ indicates 1 μM<IC50≤10 μM; + indicates IC50>10 μM.

[4] = tested on: MEF cells; details: compared with shRNA knockdown of NUAK1; cited from earlier work
[5] = tested on: U2OS cell; details: 3D invasion assay, compared with NUAK1 knockout; cited from earlier work
[6] = target: T3, NUAK1 (Homo sapiens, UniProt O60285); details: cited from earlier work
T3 sequence (O60285 1-661): T2 sequence (O60285 1-661)

[7] = target: T4, NUAK1 (mutation from Ala to Thr at position 195) (Homo sapiens, UniProt O60285, A195T); details: cited from earlier work
T4 sequence (O60285 1-661 A195T): T2 sequence (O60285 1-661) with A195T

Row | IC50 [1] [nM] | IC50 [2] [nM] | IC50 [3] [nM] | Compound | inhibition on proliferation against MEF cells [4] | inhibition of U2OS cell invasion [5] | inhibition of phosphorylation of MYPT1 by NUAK1 at Ser445 [6] | resistance of NUAK1 Ala195Thr mutant to the inhibitor [7] [fold]
1 | 10 to 100 | 10 to 100 | 1000 to 10000 | CN1CCN(c2ccc(Nc3ncc4c(n3)N(C3CCCC3)C(=O)NC4)c(Br)c2)CC1 [Example 32, 7-((2-bromo-4-(4-methylpiperazin-1-yl)phenyl)amino)-1-cyclopentyl-3,4-dihydropyrimido[4,5-d]pyrimidin-2(1H)-one] |  |  |  | 
2 |  |  |  | Cc1nc(Nc2cnn(C3CCNCC3)c2)nc2c1N(C)C(=O)c1cc3ccccc3cc1N2C [HTH-01-015] | comparable to that of shRNA knockdown of NUAK1 | inhibited U2OS cell invasion similarly to NUAK1 knockout did | inhibit the phosphorylation of MYPT1 | 50
3 |  |  |  | CCC(=O)Nc1cccc(Oc2nc(Nc3ccc(N4CCN(C)CC4)cc3OC)ncc2Cl)c1 [WZ4003] | comparable to that of shRNA knockdown of NUAK1 | inhibited U2OS cell invasion similarly to NUAK1 knockout did | inhibit the phosphorylation of MYPT1 | 50

— patent publication US20240124464A1, “SUBSTITUTED FUSED BICYCLIC COMPOUND AS KINASE INHIBITOR AND USE THEREOF” (IMPACT THERAPEUTICS (SHANGHAI), INC, priority 2020, published 2024)
